Laboratory results reported in article PMC9131456, “Structure-Based Discovery of Lipoteichoic Acid Synthase Inhibitors” (Journal of Chemical Information and Modeling, 2022).

What was measured:
[1] = test system: S. aureus (strain Newman); experiment: Antimicrobial microdilution broth assay (growth inhibition); format: cell-based; conditions: S. aureus strain Newman growth, OD600nm after 20 h at 37 °C, MH2 broth, mean ± s.e.m., n = 3
Description: All the compounds tested in this study were dissolved in dimethyl sulfoxide (DMSO) at an initial stock concentration of 20 mM and stored at −20 °C. These compounds were tested for their antimicrobial activity using the microdilution broth method[66] following the protocol described by Richter et al.[30] Briefly, overnight cultures of S. aureus (strain Newman) grown at 37 °C in cation-adjusted Mueller Hinton II (MH2) broth were adjusted to an OD600nm of 0.6 before back-diluted with a factor of 1:2000 with the same broth. After that, 200 μL of the diluted bacterial culture were dispensed into each well of 96-well plates supplemented with the compounds to the desired concentrations. The plates were then sealed with a moisture membrane barrier and incubated statically for 20 h at 37 °C. After that, the OD600nm values of the cultures in each well were measured using a CLARIOstar microplate reader (BMG Labtech). The procedures for the potentiation assays were by large the same as described above with some variations. In such assays, MRSA strain COL was grown in the 96-well plates supplemented with different concentrations of compound 9 with methicillin, carbenicillin, or polymyxin B in a checkerboard format. Their synergistic effects were quantified by OD600nm measurements using a CLARIOstar microplate reader (BMG Labtech).

Arg356Ala eLtaS = molecular target: T1, Arg356Ala eLtaS (Staphylococcus aureus, UniProt Q2G093, R356A); experiment: Isothermal titration calorimetry, Arg356Ala eLtaS; format: binding, S. aureus; conditions: ITC, compared with wild-type eLtaS
T1 construct: LtaS is a transmembrane protein with a large extracellular catalytic domain (denoted as eLtaS); His-tag; made in house; host or cells: E. coli Rosetta 2 (DE3), pET19m
From the text: (§1) The plasmid [Rosetta pProEX-eLtaS] from E coli strain ANG571 was extracted using the QIAprep Spin Miniprep Kit. Meanwhile, the genes encoding the mutant LtaS with mutations His416Ala, His347Ala, and Arg356Ala were extracted from the strains ANG1115, ANG1175, and ANG1178, respectively, using the QIAamp DNA Mini Kit. These genes were amplified using PCR, cut with NdeI/BamHI, and ligated into a pET19m transformed into E. coli Rosetta 2 (DE3) strain.
(§2) Each of the eLtaS proteins were purified from 6 L of E. coli cultures that were grown with aeration in LB medium supplemented with 200 μg/mL of carbenicillin and 34 μg/mL of chloramphenicol at 37 °C. When the cultures reached an OD600nm of about 0.6, protein expression was induced with 1 mM IPTG final concentration at 21 °C overnight. […] All four eLtaS proteins were subjected to circular dichroism analysis, and their exact masses were determined using MS.
(§3) The thawed eLtaS proteins were dialyzed using D-Tube Dialyzer Mini (EMD Millipore) in 20 mM Trizma-HCl pH 7.5, 100 mM NaCl with Chelex 100 (Sigma-Aldrich) for 1.5 h twice on the same day prior to the ITC experiments. […] Data were first analyzed in NITPIC[69] for baseline calculations and then fit for thermodynamic parameters using the OneSite model in Origin 7.0 software.

[2] = design: method as in PMID 23401520; conditions: lethal sepsis mouse model; cited from earlier work
[3] = test system: S. aureus (strain Newman); experiment: Non-lethal S. aureus lung infection mouse model; format: in vivo, BALB/c female mice; conditions: 300 μg intranasally, infected BALB/c mice
From the text: All in vivo experiments were done at the University of Liverpool under the UK Animals (Scientific Procedures) Act 1986 guidelines. The protocols were approved by the UK Home Office and by the University of Liverpool Animal Welfare and Ethics Committee. Six to eight week old BALB/c female mice (Charles River, UK) were used in the study after being left to acclimatize for a minimum of 7 days prior to experimentation. Mice were intranasally infected with 5 × 10^7 CFU of the S. aureus (strain Newman) in 50 μL of sterile phosphate-buffered saline (PBS). The bacterial dose was prepared by incubating 50 μL of an overnight culture in brain heart infusion (BHI) broth (Oxoid, Thermo Fisher Scientific, UK) into 5 mL of fresh BHI. Once the culture reached an OD600 = 2–3, the bacterial numbers were adjusted to the desired dose using sterile PBS. Three hours postinfection, mice were intranasally treated with either 50 μL of sterile PBS (control) or with 300 μg of compounds 1771 and compound 4 dissolved in 50 μL of sterile PBS. The final DMSO concentration was 5%, and the PBS control also contained 5% DMSO. Mice were culled 24 h postinfection; lungs were collected, homogenized, and serially diluted to determine CFU counts.[70] Significant differences were determined using the unpaired two-tailed Student t-test (p = 0.0013).

LTA synthase (LtaS) = test system: LTA synthase (LtaS); design: method as in PMID 23401520; conditions: by inhibiting LtaS; cited from earlier work
His416Ala eLtaS = molecular target: T2, His416Ala eLtaS (Staphylococcus aureus, UniProt Q2G093, H416A); experiment: Isothermal titration calorimetry, His416Ala eLtaS; format: binding, S. aureus; conditions: ITC, compared with wild-type eLtaS
T2 construct: LtaS is a transmembrane protein with a large extracellular catalytic domain (denoted as eLtaS); His-tag; made in house; host or cells: E. coli Rosetta 2 (DE3), pET19m
From the text: as §1, §2, §3

wild-type eLtaS = molecular target: T3, wild-type eLtaS (Staphylococcus aureus, UniProt Q2G093); experiment: Isothermal titration calorimetry, wild-type eLtaS; format: binding, S. aureus; conditions: ITC, 25 °C, wild-type eLtaS titrated into 10 μM inhibitor
T3 construct: LtaS is a transmembrane protein with a large extracellular catalytic domain (denoted as eLtaS); His-tag; made in house; host or cells: E. coli (Rosetta; plasmid pProEX-eLtaS from strain ANG571)
Description: Each of the eLtaS proteins were purified from 6 L of E. coli cultures that were grown with aeration in LB medium supplemented with 200 μg/mL of carbenicillin and 34 μg/mL of chloramphenicol at 37 °C. When the cultures reached an OD600nm of about 0.6, protein expression was induced with 1 mM IPTG final concentration at 21 °C overnight. Later, the bacteria were harvested by centrifugation at 11,899g, and the bacterial pellets were resuspended with lysis buffer (50 mM Trizma-HCl, pH 7.5, 300 mM NaCl, 5% glycerol, 10 mM imidazole, 5 mM β-mercaptoethanol). The bacterial pellets were lyzed by three passages through a high-pressure emulsifier, and the lysates were centrifuged at 47,596g for 30 min at 4 °C. The resulting supernatants containing the His-tagged eLtaS proteins were filtered with a 0.22 μm filter before being loaded onto a 5 mL Ni-NTA column using an ÄKTApure protein purification system. The bound proteins were subsequently washed with lysis buffer, eluted using the elution buffer (50 mM Trizma-HCl, pH 7.5, 300 mM NaCl, 5% glycerol, and 300 mM imidazole), and dialyzed twice using the dialysis buffer [25 mM Trizma-HCl, pH 7.5, 100 mM NaCl, 10% glycerol, 1 mM ethylenediaminetetraacetic acid (EDTA)]. After dialysis, protein purity was confirmed to be >90% using SDS-PAGE. Proteins were then concentrated, snap-frozen in liquid N2, and stored at −80 °C prior to usage. All four eLtaS proteins were subjected to circular dichroism analysis, and their exact masses were determined using MS.
The thawed eLtaS proteins were dialyzed using D-Tube Dialyzer Mini (EMD Millipore) in 20 mM Trizma-HCl pH 7.5, 100 mM NaCl with Chelex 100 (Sigma-Aldrich) for 1.5 h twice on the same day prior to the ITC experiments. After dialysis, the eLtaS proteins were centrifuged at 20,000g at 10 °C for 10 min. The supernatants were transferred to new microcentrifuge tubes and diluted to 100 μM using the same buffer as above with an addition of 0.1% (v/v) DMSO. Meanwhile, the eLtaS inhibitors were diluted to 10 μM using the same buffer and maintaining 0.1% (v/v) DMSO. The eLtaS proteins were titrated into the main cell containing the inhibitors using a VP-ITC at 25 °C. The injection parameters were set as follows: a reference power of 15 μcal/s, an initial injection of 3 μL over a duration of 3.6 s, and then subsequent injections of 10 μL over a duration of 12 s. All injections were spaced with 240 s with a filter period of 2 s. Data were first analyzed in NITPIC[69] for baseline calculations and then fit for thermodynamic parameters using the OneSite model in Origin 7.0 software.

His347Ala eLtaS = molecular target: T4, His347Ala eLtaS (Staphylococcus aureus, UniProt Q2G093, H347A); experiment: Isothermal titration calorimetry, His347Ala eLtaS; format: binding, S. aureus; conditions: ITC, compared with wild-type eLtaS
T4 construct: LtaS is a transmembrane protein with a large extracellular catalytic domain (denoted as eLtaS); His-tag; made in house; host or cells: E. coli Rosetta 2 (DE3), pET19m
From the text: as §1, §2, §3

[4] = test system: LTA production in S. aureus (strain RN4220); experiment: Western blot (immunoblotting) of LTA in S. aureus cell extracts; format: cell-based; conditions: for LTA production: Western blot of S. aureus cell extracts, 10 μM in Figure S14, 100 μM for compound 8
Description: The procedures of LTA detection using Western Blot had previously been reported by Gründling et al.[52] To determine the effect of the compounds on LTA production, 10 mL cultures of S. aureus (strain RN4220) in MH2 broth were incubated in an orbital shaker at 37 °C with either the compounds or DMSO. When the control cultures had reached an OD600nm ∼ 1, the bacteria were pelleted and the OD600nm of the cultures normalized by resuspension with the appropriate amount of MH2 broth. Subsequently, 1 mL from each cultures was mixed with 0.5 mL of 0.1 mm glass beads, and the bacteria were lyzed by vortexing at 4 °C for 45 min. After lysis, glass beads were removed by centrifugation at 200g, and the supernatants were transferred to a new tube. The membrane-associated LTA from each culture were pelleted by an additional centrifugation step of the supernatant at 16,000g for 15 min before resuspension in 30 μL of 2× SDS. The samples were boiled at 80 °C for 20 min, and the solubilized fractions were loaded onto 15% SDS-polyacrylamide gels prior to electrophoresis at 120 V for 1.5 h. The LTA on the gels were electrotransferred onto FL-immobilon PVDF membranes at 25 V for another 1.5 h. After the electrotransfer, the membranes were blocked with 5% skimmed milk for 1 h and incubated with the antimouse LTA antibody (clone G43J, Thermo Fisher Scientific; 1:1000 dilution) overnight at 4 °C. After washing, the membranes were incubated with antimouse IRDye 680RD (1:10,000 dilution) for 1 h, washed, and visualized using the Odyssey CLx Imaging System.

HEK293 cells = experiment: LDH release cytotoxicity assay; format: cell-based, human; conditions: 200 μM compound, 24 h
Description: The human embryonic kidney (HEK293) cells were maintained in Dulbecco’s modified Eagle medium (DMEM) supplemented with 10% fetal bovine serum and 100 units/mL of penicillin–streptomycin. For the cell viability assays, cells were seeded onto 96-well plates at a density of 4 × 10^4 cells/well and grown at 37 °C at 5% CO2. After incubating the cells for 24 h, the culture media were replaced with fresh DMEM supplemented with 200 μM of the compounds 1771, compound 4, compound 8, and compound 9 and incubated further for an additional 24 h. The cytotoxicity of these drugs was measured using the LDH Cytotoxicity Assay Kit according to the manufacturer’s instruction (Thermo Scientific). The absorbance at 490 nm was measured with a CLARIOstar microplate reader (BMG Labtech), and the reference wavelength was set at 630 nm.

IsaA = experiment: SDS-PAGE and LC/MS-MS analysis of the lysate of treated S. aureus; format: cell-based; conditions: S. aureus treated with 100 μM compound, SDS-PAGE
[5] = Staphylococcus aureus, NEWMAN, 20 h

O=C(COC(=O)CSC(c1ccccc1)c1ccccc1)Nc1nnc(-c2ccccc2)o1 [Compound 5]
IC50 [1]: 17.5 ± 1.08 µM

COc1ccccc1Nc1ncccc1C(=O)OCC(=O)Nc1nnc(-c2ccccc2)o1 [Compound 2]
IC50 [1]: 12.3 ± 0.38 µM

O=C(COC(=O)Cc1coc2ccc3ccccc3c12)Nc1nnc(-c2ccccc2)o1 [compound 1771]
binding affinity to the Arg356Ala eLtaS variant (Arg356Ala eLtaS): slight increase in binding affinities | in vivo stability [2]: lost activity over time due to in vivo instability | survival of infected mice [2]: temporarily prolong the survival of the infected mice | tolerability in mice [3]: did not tolerate the latter well | LTA synthesis (LTA synthase (LtaS)): able to suppress LTA synthesis | binding affinity to the His416Ala eLtaS variant (His416Ala eLtaS): slight increase in binding affinities | Kd (wild-type eLtaS): 0.457 ± 0.0071 µM | IC50 [1]: 14.9 ± 1.59 µM | IC50 [1, 5]: 14.5 µM | binding to the His347Ala eLtaS variant (His347Ala eLtaS): abolished

O=C(COC(=O)/C=C/c1ccc2ccccc2n1)Nc1nnc(-c2ccccc2)o1 [Compound 7]
IC50 [1]: 12.4 ± 1.9 µM

Cc1csc(SCc2ccccc2C(=O)OCC(=O)Nc2nnc(-c3ccccc3)o2)n1 [Compound 3]
LTA production [4]: able to reduce LTA production | IC50 [1]: 13.4 ± 0.35 µM

Cc1cccc(COc2ccccc2C(=O)OCC(=O)Nc2nnc(-c3ccccc3)o2)c1 [Compound 6]
LTA production [4]: able to reduce LTA production | IC50 [1]: 11.1 ± 0.49 µM

O=C(Nc1ccc(Oc2ccc(NC(=O)Nc3ccc([N+](=O)[O-])cc3)cc2)cc1)Nc1ccc([N+](=O)[O-])cc1 [Compound 8]
cytotoxicity (LDH release) (HEK293 cells): cytotoxic | LTA production [4]: did not decrease LTA production | electrophoretic mobility of the LTA extracted from treated S. aureus ([4]; Western blot, 100 μM compound): decreased electrophoretic mobility and higher heterogeneity | IC50 [1]: 29.4 µM | IC50 [1, 5]: 29.4 µM | protein upregulation in the lysate (IsaA, a peptidoglycan hydrolase) (IsaA): upregulated a 24 kDa protein
